According to patent publication US6610685B2, “Fused indole derivatives” (Hoffmann-La Roche Inc., priority 2000, dated 2003):
Read-outs that look alike come from different tables or passages of the source.

Key:
human 5-HT2B receptors = target: T1, human 5-HT2B receptors (Homo sapiens, UniProt P41595); test: Binding to the 5-HT2B receptor, Method (b), [3H]-5-HT
T1 construct: expressed in transfected cells; host or cells: CHO cell line
Experimental: (§1) The binding of compounds of formula (I) to serotonin receptors was determined in vitro by standard methods. The preparations were investigated in accordance with the assays given hereinafter.
Method (b): For the binding to the 5-HT2B receptor the 5-HT2B receptors were radiolabeled with [^3H]-5-HT. The affinity of the compounds for human 5-HT2B receptors in a CHO cell line was determined according to the procedure of K. Schmuck, C. Ullmer, P. Engels and H. Lubbert, FEBS Lett., 1994, 342, 85-90.
(§2) The Ki values are calculated according to the method of Cheng, Yung-Chi, and Prusoff, W. H. Biochem. Pharmacol. 1973, 22(23) 3099-108.

[1] = Pharmacodynamic study: food intake up to 16 hours after compound administration; format: in vivo, rats; conditions: 30 mg/kg p.o.
Experimental: The in vivo activity of compounds of formula (I) was assayed for ability to regulate feeding behaviour during a time period up to 16 hours after compound administration.
The test compound was assessed following acute administration. Each study utilised a between-subjects design (typically n=8) and compared the effects of a single dose of the test agent to those of vehicle.
Example 1 was administered at a dose of 30 mg/kg p.o. in a distilled water vehicle 2, 4, 8, or 16 hours prior to food presentation. At the time of food presentation (standard laboratory chow) all animals had been subjected to a 23-hour food deprivation period. Water was freely available throughout the study. The amount of food consumed over 1 hour was determined. Food intake data were subjected to two-way analysis of variance (ANOVA) with drug treatment as a between-subjects factor and injection-test-interval as a between subjects factor. Newman-Keuls tests were performed to assess whether differences between the vehicle mean and the drug-treated mean at each level of injection-test-interval were significant. All statistical analyses were performed using Statistica Software, Version 5.0 (Statsoft Inc.) and Microsoft Excel 7.0 (Microsoft Corp.).

5-HT2C receptor [2] = target: T2, 5-HT2C receptor (Homo sapiens, UniProt P28335); test: Functional activity, FLIPR calcium assay, CHO cells expressing human 5-HT2C; format: cell-based; set-up: expressed in transfected cells; host or cells: CHO cells; conditions: for h5-HT2c Relative Efficacy: relative to response of 10 μM 5-HT (100%)
T2 sequence (P28335 33-458): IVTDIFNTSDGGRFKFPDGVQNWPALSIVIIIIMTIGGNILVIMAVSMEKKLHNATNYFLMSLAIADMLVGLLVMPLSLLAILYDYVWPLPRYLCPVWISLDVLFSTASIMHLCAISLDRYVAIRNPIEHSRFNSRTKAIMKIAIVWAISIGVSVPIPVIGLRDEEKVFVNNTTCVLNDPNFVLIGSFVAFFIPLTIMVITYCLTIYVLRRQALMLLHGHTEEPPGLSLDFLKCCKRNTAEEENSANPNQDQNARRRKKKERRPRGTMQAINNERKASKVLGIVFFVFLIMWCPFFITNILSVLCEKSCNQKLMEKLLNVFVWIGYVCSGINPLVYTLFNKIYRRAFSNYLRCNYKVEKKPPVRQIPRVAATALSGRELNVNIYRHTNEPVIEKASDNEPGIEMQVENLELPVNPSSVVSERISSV
Experimental: (§3) The functional activity of compounds of formula (I) was assayed using a Fluorimetric Imaging Plate reader (FLIPR). CHO cells expressing the human 5-HT2C or human 5-HT2A receptors were counted and plated into standard 96 well microtitre plates on the day before testing to give a confluent monolayer. The cells were then dye loaded with the calcium sensitive dye, Fluo-3-AM. Unincorporated dye was removed using an automated cell washer to leave a total volume of 100 μL/well of assay buffer (Hanks balanced salt solution containing 20 mM Hepes and 2.5 mM probenecid). The drug (dissolved in 50 μL of the assay buffer) was added at a rate of 70 μL/sec to each well of the FLIPR 96 well plate during fluorescence measurements. The measurements were taken at 1 sec intervals and the maximum fluorescent signal was measured (approx 10-15 secs after drug addition) and compared with the response produced by 10 μM 5-HT (defined as 100%) to which it was expressed as a percentage response (relative efficacy). Dose response curves were constructed using Graphpad Prism (Graph Software Inc.).

5-HT2A receptor [3] = target: T3, 5-HT2A receptor (Homo sapiens, UniProt P28223); test: Functional activity, FLIPR calcium assay, CHO cells expressing human 5-HT2A; format: cell-based; set-up: expressed in transfected cells; host or cells: CHO cells
Experimental: as §3

5-HT2C receptor [4] = target: T2, 5-HT2C receptor; test: Binding to the 5-HT2C receptor, Method (a), [3H]-5-HT; set-up: expressed in transfected cells; host or cells: CHO cell line
Experimental: as §1
Method (a): For the binding to the 5-HT2C receptor the 5-HT2C receptors were radiolabeled with [^3H]-5-HT. The affinity of the compounds for 5-HT2C receptors in a CHO cell line was determined according to the procedure of D. Hoyer, G. Engel and H. O. Kalkman, European J. Pharmacol., 1985, 118, 13-23.
as §2

5-HT2A receptor [5] = target: T3, 5-HT2A receptor; test: Binding to the 5-HT2A receptor, Method (c), [125I]-DOI; set-up: expressed in transfected cells; host or cells: CHO cell line
Experimental: as §1
Method (c): For the binding to the 5-HT2A receptor the 5-HT2A receptors were radiolabeled with [^125I]-DOI. The affinity of the compounds for 5-HT2A receptors in a CHO cell line was determined according to the procedure of D. J. McKenna and S. J. Peroutka, J. Neurosci., 1989, 9, 3482-90.
as §2

[6] = literature; cited from earlier work
[7] = literature, cited from earlier work

T3 sequence (P28223 whole entry): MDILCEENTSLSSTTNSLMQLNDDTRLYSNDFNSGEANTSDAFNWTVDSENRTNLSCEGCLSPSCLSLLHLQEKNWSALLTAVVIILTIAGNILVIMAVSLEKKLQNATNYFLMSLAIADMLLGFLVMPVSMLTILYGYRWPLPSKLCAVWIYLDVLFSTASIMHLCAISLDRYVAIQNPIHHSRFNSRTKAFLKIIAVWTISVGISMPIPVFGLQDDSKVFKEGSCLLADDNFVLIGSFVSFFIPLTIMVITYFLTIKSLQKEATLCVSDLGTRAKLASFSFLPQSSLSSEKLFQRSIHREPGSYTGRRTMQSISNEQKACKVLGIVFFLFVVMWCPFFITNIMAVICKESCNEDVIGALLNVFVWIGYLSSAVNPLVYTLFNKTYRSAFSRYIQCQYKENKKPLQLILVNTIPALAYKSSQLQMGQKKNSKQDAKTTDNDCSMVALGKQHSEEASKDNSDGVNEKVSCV
T1 sequence (P41595 whole entry): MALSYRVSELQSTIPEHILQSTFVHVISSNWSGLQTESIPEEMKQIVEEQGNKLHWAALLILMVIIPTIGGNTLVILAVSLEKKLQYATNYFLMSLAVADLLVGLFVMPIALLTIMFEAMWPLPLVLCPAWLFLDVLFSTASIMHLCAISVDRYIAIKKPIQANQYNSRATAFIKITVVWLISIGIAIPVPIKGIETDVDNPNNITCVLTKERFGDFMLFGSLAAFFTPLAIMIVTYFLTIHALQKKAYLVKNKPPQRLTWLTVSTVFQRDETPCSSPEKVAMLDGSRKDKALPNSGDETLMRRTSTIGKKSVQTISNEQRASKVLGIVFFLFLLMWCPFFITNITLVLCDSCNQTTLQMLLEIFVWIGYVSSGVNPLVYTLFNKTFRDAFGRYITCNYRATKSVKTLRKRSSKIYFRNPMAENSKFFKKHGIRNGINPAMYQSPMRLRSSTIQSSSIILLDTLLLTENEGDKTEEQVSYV

COCCCCOc1ccc2c(c1)c(C[C@H](C)N)c1n2CCC1.Cl
melting point: 107 °C

CCOCCOc1ccc2c(c1)c(C[C@H](C)N)c1n2CCC1.Cl
melting point: 170 to 172 °C

CCOCCCOc1ccc2c(c1)c(C[C@H](C)N)c1n2CCC1.Cl
melting point: 132 °C

CCOc1ccc2c(c1)c(C[C@H](C)N)c1n2CCC1 [Example 1, (S)-2-(6-ethoxy-2,3-dihydro-1H-3a-aza-cyclopenta[a]inden-8-yl)-1-methyl-ethylamine]
Ki (human 5-HT2B receptors): 830 nM
duration of action in reducing rat food intake [1]: at least 16 hours
h5-HT2c Relative Efficacy (5-HT2C receptor [2]): 87%
h5-HT2A Relative Efficacy (5-HT2A receptor [3]; relative to response of 10 μM 5-HT (100%)): 33%
Ki (5-HT2C receptor [4]; Method (a), [3H]-5-HT, CHO cell line, Ki by Cheng-Prusoff, read-out: Ki (2C)): 11 nM
Ki (5-HT2A receptor [5]): 410 nM

COCCOc1ccc2c(c1)c(C[C@H](C)N)c1n2CCC1 [Example 2, (S)-2-[6-(2-methoxy-ethoxy)-2,3-dihydro-1H-3a-aza-cyclopenta[a]inden-8-yl]-1-methyl-ethyl amine]
Ki (human 5-HT2B receptors; Method (b), [3H]-5-HT, human 5-HT2B in CHO cell line, Ki by Cheng-Prusoff, read-out: Ki (2B)): 480 nM
Ki (5-HT2C receptor [4]): 19 nM
Ki (5-HT2A receptor [5]; Method (c), [125I]-DOI, CHO cell line, Ki by Cheng-Prusoff, read-out: Ki (2A)): 520 nM

C[C@H](N)Cc1c2n(c3ccc(OC4CC4)cc13)CCC2 [Example 3, (S)-2-(6-cyclopropoxy-2,3-dihydro-1H-3a-aza-cyclopenta[a]inden-8-yl)-1-methyl-ethylamine]
EC50 (5-HT2C receptor [2]; FLIPR, CHO cells, read-out: h5-HT2c EC50): 3 nM
h5-HT2c Relative Efficacy (5-HT2C receptor [2]): 84%
EC50 (5-HT2A receptor [3]; FLIPR, CHO cells, read-out: h5-HT2A EC50): > 1000 nM

Clc1cccc(N2CCNCC2)c1 [mCPP, m-chlorophenylpiperazine]
behavioural satiety sequence [6]: accelerate the appearance of the behavioural satiety sequence
food intake in rats [6]: reduce food intake
food intake in female volunteers ([7]; single dose): decreased food intake
appetite and body weight of obese male and female subjects ([7]; subchronic treatment for a 14 day period): decreased the appetite and body weight
